# Assay results taken from the RepoRT retention time repository (doi:10.1016/j.foodchem.2021.129757).
# Tests used:
# Conditions in all cases: stereoisomer not certain
# [1] = Other, Phenomenex Kinetex PFP, 100 × 4.6 mm, 5 µm, 45 °C, 0.6 mL/min, estimated dead time 1.8 min; A: water + 0.1% trifluoroacetic acid, pH 2; B: methanol; gradient (min/%B) 0/40 20/72 21/40
# [2] = RP, Waters ACQUITY UPLC HSS T3, 100 × 2.1 mm, 50 °C; A: water + 0.1% formic acid, pH 3; B: 30% methanol + 70% acetonitrile + 0.1% formic acid, pH 3; gradient (min/%B) 0/5 1/8 2/15 3/40 4/70 4.5/100 5/100 6.4/100 6.6/5 6.8/5 7/5
# [3] = RP, Agilent ZORBAX RRHD Eclipse Plus C18, 50 × 2.1 mm, 1.8 µm, 30 °C, 0.4 mL/min, estimated dead time 0.28 min; A: water + 0.1% formic acid, pH 3; B: acetonitrile + 0.1% formic acid, pH 3; gradient (min/%B) 0/1 5/10 8/25 9.1/99 10/99 12/99
# [4] = RP, Agilent ZORBAX RRHD Eclipse Plus C18, 50 × 2.1 mm, 1.8 µm, 30 °C, 0.4 mL/min, estimated dead time 0.28 min; A: water + 0.1% formic acid, pH 3; B: acetonitrile + 0.1% formic acid, pH 3; gradient (min/%B) 0/1 5/10 8/25 9.1/99 10/99 12/1
# [5] = RP, Phenomenex Luna Omega Polar C18, 100 × 2.1 mm, 1.6 µm, 40 °C, 0.5 mL/min, estimated dead time 0.44 min; A: water + 0.1% formic acid + 10 mM ammonium formate; B: acetonitrile; gradient (min/%B) 0/5 8/20 10/100 12/100 12.1/5 14/5
# [6] = RP, Phenomenex Luna C18, 150 × 4.6 mm, 3 µm, 25 °C, 0.5 mL/min, estimated dead time 3.2 min; A: water + 0.1% formic acid, pH 3; B: acetonitrile + 0.1% formic acid, pH 3; gradient (min/%B) 0/0 30/30 35/40 50/80 52/80 60/0 65/0
# [7] = RP, Agilent ZORBAX Eclipse XDB-C18, 100 × 2.1 mm, 1.8 µm, 50 °C, 0.4 mL/min, estimated dead time 0.55 min; A: water + 0.1% formic acid, pH 3; B: methanol + 0.1% formic acid, pH 3; gradient (min/%B) 0/2 10/100 14.5/100 14.51/2 16.5/2
# [8] = RP, Waters ACQUITY UPLC BEH Shield RP18, 150 × 2.1 mm, 1.7 µm, 40 °C, 0.4 mL/min, estimated dead time 0.83 min; A: water + 0.1% formic acid, pH 3; B: acetonitrile + 0.1% formic acid, pH 3; gradient (min/%B) 0/0 30/50 31/100 37/100 37.1/0
# [9] = RP, Phenomenex Synergi Hydro-RP, 150 × 2 mm, 4 µm, 30 °C, 0.5 mL/min, estimated dead time 0.6 min; A: water + 0.1% formic acid, pH 3; B: acetonitrile + 0.1% formic acid, pH 3; gradient (min/%B) 0/5 1/5 35/45 40/100 45/100
# [10] = RP, Agilent InfinityLab Poroshell 120 EC-C18, 100 × 3 mm, 2.7 µm, 25 °C, 0.4 mL/min, estimated dead time 1.1 min; A: water + 0.1% formic acid, pH 3; B: acetonitrile + 0.1% formic acid, pH 3; gradient (min/%B) 0/5 10/25 20/40 24/90 25/90 26/5 30/5
# [11] = RP, 50 × 0.5 mm, 2.7 µm, 35 °C, 0.01 mL/min, estimated dead time 0.62 min; A: water + 0.1% formic acid, pH 3; B: acetonitrile + 0.1% formic acid, pH 3; gradient (min/%B) 0/5 12/95 14/95 16/5
# [12] = RP, Waters ACQUITY UPLC BEH Shield RP18, 100 × 2.1 mm, 1.7 µm, 30 °C, 0.6 mL/min, estimated dead time 0.37 min; A: water + 0.1% formic acid, pH 3; B: acetonitrile + 0.1% formic acid, pH 3; gradient (min/%B) 0/0 2/0 7/10 22/95 22.1/0 26/0
# [13] = RP, Phenomenex Luna Omega Polar C18, 100 × 2.1 mm, 1.6 µm, 40 °C, 0.5 mL/min, estimated dead time 0.44 min; A: water + 0.5% formic acid; B: acetonitrile + 0.5% formic acid; gradient (min/%B) 0/5 3/50 3.1/100 5/100 5.1/5 7/5
# [14] = RP, Waters ACQUITY UPLC HSS T3, 100 × 2.1 mm, 1.8 µm, 30 °C, 0.4 mL/min, estimated dead time 0.55 min; A: water + 0.1% formic acid, pH 3; B: acetonitrile + 0.1% formic acid, pH 3; gradient (min/%B) 0/0 2/0 15/100 22/100 22.1/0 26/0
# [15] = RP, Waters ACQUITY UPLC BEH C18, 100 × 2.1 mm, 1.7 µm, 65 °C, 0.4 mL/min, estimated dead time 0.55 min; A: water + 0.1% formic acid, pH 3; B: 80% acetonitrile + 20% acetone + 0.1% formic acid, pH 3; gradient (min/%B) 0/0 5/100 5.5/0 6/0
# [16] = RP, Phenomenex Kinetex EVO C18, 100 × 2.1 mm, 2.6 µm, 40 °C, 0.4 mL/min, estimated dead time 0.55 min; A: water + 0.2% formic acid; B: acetonitrile + 0.2% formic acid; gradient (min/%B) 0/5 0.5/5 7/95 8/95 8.5/5 12/5
compound,measurement,setting,value
O=C1c2c(O)cc(O)cc2OC(c2cc(O)c(OS(=O)(=O)O)c(O)c2)C1O (stereo unspecified) [Ampelopsin-4-O-sulfate],LC retention time,[1],7.54 min
"O=C(O)C=Cc1ccc(O)cc1O [2,4-Dihydroxycinnamic acid]",LC retention time,[2],3.08 min
same,LC retention time,[1],5.73 min
O=S(=O)(O)Oc1ccccc1O [Catechol O-sulfate],LC retention time,[3],1.45 min
same,LC retention time,[4],2.95 min
same,LC retention time,[5],1.79 min
same,LC retention time,[6],18.2 min
same,LC retention time,[2],2.26 min
same,LC retention time,[7],2.1 min
same,LC retention time,[8],7.99 min
same,LC retention time,[9],4.29 min
same,LC retention time,[10],4.22 min
"COc1cc(C2Oc3c(O)cc(-c4oc5cc(O)cc(O)c5c(=O)c4O)cc3C2CO)ccc1O (stereo unspecified) [2,3-Dehydrosilychristin A]",LC retention time,[1],17.5 min
O=c1c(OC2OC(CO)C(O)C(O)C2O)c(-c2ccc(OS(=O)(=O)O)c(O)c2)oc2cc(O)cc(O)c12 (stereo unspecified) [Isoquercitrin 4-O-sulfate],LC retention time,[1],7.77 min
O=c1cc(-c2ccc(O)c(OS(=O)(=O)O)c2)oc2cc(O)cc(O)c12 [Luteolin 3-sulfate],LC retention time,[1],16.4 min
COc1cc(C2C3C=C(C4Oc5cc(O)cc(O)c5C(=O)C4O)C4C2COC4(O)C3=O)ccc1O (stereo unspecified) [Silydianin],LC retention time,[1],21.5 min
O=c1c(O)c(-c2cc(O)c(OS(=O)(=O)O)c(O)c2)oc2cc(O)cc(O)c12 [Myricetin 4-O-sulfate],LC retention time,[1],15.2 min
O=c1c(OC2OC(CO)C(O)C(O)C2O)c(-c2ccc(O)c(O)c2)oc2cc(O)cc(O)c12 (stereo unspecified) [Quercetin-3-O-glucoside],LC retention time,[1],9.23 min
Cc1ccc(O)c(OS(=O)(=O)O)c1 [4-Methylcatechol monosulfate],LC retention time,[1],4.92 min
COc1c(O)cc(C(=O)O)cc1OS(=O)(=O)O [4-O-methylgallic acid 3-O-sulfate],LC retention time,[11],1.84 min
same,LC retention time,[3],1.15 min
same,LC retention time,[4],3.6 min
same,LC retention time,[12],10.4 min
same,LC retention time,[13],1.41 min
same,LC retention time,[5],1.78 min
same,LC retention time,[6],11.7 min
same,LC retention time,[7],2.27 min
same,LC retention time,[9],5.32 min
same,LC retention time,[14],7.32 min
same,LC retention time,[10],3.61 min
COc1cc(C2Oc3c(O)cc(C4Oc5cc(O)cc(O)c5C(=O)C4O)cc3C2CO)ccc1O (stereo unspecified) [Silychristin],LC retention time,[1],10.3 min
"COc1cc(CC2COC(c3ccc(O)c(OC)c3)C2CO)ccc1O (single isomer, unassigned; (+)) [(+)-Lariciresinol]",LC retention time,[11],5.08 min
same,LC retention time,[12],13.5 min
same,LC retention time,[13],2.68 min
same,LC retention time,[5],9.31 min
same,LC retention time,[6],32.2 min
same,LC retention time,[15],2.48 min
same,LC retention time,[7],5.5 min
same,LC retention time,[8],15 min
same,LC retention time,[9],19.4 min
same,LC retention time,[14],10.2 min
same,LC retention time,[10],12.1 min
O=c1oc2cc(O)ccc2c2ccc(O)cc12 [Urolithin A],LC retention time,[11],5.33 min
same,LC retention time,[12],14.9 min
same,LC retention time,[13],3.08 min
same,LC retention time,[5],9.38 min
same,LC retention time,[6],35.8 min
same,LC retention time,[7],5.95 min
same,LC retention time,[16],5.59 min
same,LC retention time,[8],18.4 min
same,LC retention time,[14],10.6 min
same,LC retention time,[10],13.1 min
Cc1ccc(O)c(O)c1 [4-methylcatechol],LC retention time,[1],6.24 min
O=c1cc(-c2ccc(OS(=O)(=O)O)c(O)c2)oc2cc(O)cc(O)c12 [Luteolin 4-sulfate],LC retention time,[1],17.1 min
"O=c1cc(-c2ccc(OS(=O)(=O)O)c(O)c2)oc2cc(OS(=O)(=O)O)cc(O)c12 [Luteolin 7,4-disulfate]",LC retention time,[1],11.9 min
Oc1cc(O)cc(O)c1 [Phloroglucinol],LC retention time,[1],2.9 min
